Reference: PMC4176947 (Journal of natural products, 2012)
Starred links: 1 amine or outer side, 2 acyl side, 3 side chain; linkers in the order of their positions; H or OH if unused. Non-standard residues stand in square brackets, D forms with d. Residues, ends and D or L forms follow the SMILES beside them. *: point of attachment. X1 = O=C([C@H]1CSC([C@@H](Cc2ccccc2)N[*:1])=N1)[*:2]; Allyl(1,1-Me2) = C=CC(C)(C)*

What was measured:
[1] = cited from earlier work
[2] = system: adipocyte differentiation; settings: cited from earlier work
HIV integrase = settings: cited from earlier work
[3] = molecular target: wild-type HIV-1 integrase (Human immunodeficiency virus type 1 group M subtype B, UniProt P04585); assay type: biochemical; settings: at 100 µg/mL
[4] = system: HIV-infected 1A2 cells (a subclone of CEM-SS TART cells); experiment: Cytoprotective cell-based anti-HIV assay; settings: at 78 µM

## O=C(NCCc1ccccc1)NCCc1ccccc1 [N, N’-diphenethylurea]
[1]
  Antidepressant action: act as an antidepressant
[2]
  Promotion of adipocyte differentiation: promote adipocyte differentiation

## CC(C)C[C@@H]1NC(=O)[C@@H]2CCCN2C(=O)[C@H](C(C)C)NC(=O)c2csc(n2)CNC(=O)c2csc(n2)[C@H](CCC(N)=O)NC1=O [dolastatin 3]
HIV integrase
  HIV integrase inhibition activity: HIV integrase inhibition activity

## C=CC(C)(C)O[C@H](C)[C@@H]1NC(=O)[C@H]2CSC(=N2)[C@@H](Cc2ccccc2)NC(=O)[C@@H]2CCCN2C(=O)[C@H](CO)NC(=O)[C@H](CC(C)C)NC1=O [Compound 1, Mollamide E] (cyclo(LSP[X1]T(Allyl(1,1-Me2))))
[3]
  HIV-1 integrase inhibition at single concentration: no activity
[4]
  HIV inhibition in cytoprotective assay at single concentration: did not show any inhibition

## O=C(NCCc1ccccc1)NCCc1ccccc1C(=O)NCCc1ccccc1 [Compound 3, Molleurea A]
[3]
  HIV-1 integrase inhibition at single concentration: no activity
